The source of these data is US20140005163A1 (NOVARTIS AG, priority 2010, published 2014).

One series can be described thus: Solubility at pH 6.8. The series is classed as physicochemical. To be noted: pH 6.8, aqueous buffer, thermodynamic from solid; read-out: solubility. The essentials:
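Following the procedure of Zhou et al. (2007), compound solubility was determined at pH 6.8.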

The target in another series is T1, mTOR (Homo sapiens, UniProt P42345).
T1 construct: purchased Invitrogen Corporation (Carlsbad/CA, USA) PV4753
Description: Biochemical assay for m-TOR by TR-FRET. To be noted: 8 μM ATP, 400 nM GFP-4EBP1, 0.5 nM mTOR. Summed up:
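TR-FRET read-out: Tb-labelled anti-p4EBP1 pThr46 antibody (0.5 nM), added in EDTA to stop the reaction, detects phosphorylated GFP-4EBP1 after 15 min. Kinase step used 0.5 nM mTOR, 400 nM substrate, 8 μM ATP, MnCl2-containing HEPES buffer pH 7.5, room temperature.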

In the next series the target is T2, PI3K delta (Homo sapiens, UniProt O00329).
T2 construct: for the full-length p110-d subunit are generated and fused by overlapping PCR; p85(iSH2) fusion partner (see partner chain) (N); His tag (C); made in house; host or cells: baculovirus; Tn5 (Trichoplusia ni) or TiniPro insect cells
Description: PI3K delta kinase assay (Kinase-Glo luminescence). The series is classed as biochemical. Summed up: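 Inhibition is derived from luminescent detection of unconsumed ATP. The reaction runs for one hour at ambient temperature and contains the δ isoform fusion protein, phosphatidylinositol substrate and low (1 μM) ATP. Eight compound concentrations are tested in single, and a 4-parameter logistic model is used to calculate IC50.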

The target of a further series is T3, PI3K beta (Homo sapiens, UniProt P42338).
T3 construct: for the full-length p110-b subunit are generated and fused by overlapping PCR; p85(iSH2) fusion partner (see partner chain) (N); His tag (C); made in house; host or cells: baculovirus; Tn5 (Trichoplusia ni) or TiniPro insect cells
Description: PI3K beta kinase assay (Kinase-Glo luminescence). The series is classed as biochemical. Summed up:
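Kinase-Glo luminescence after a 60 min room-temperature reaction gives remaining ATP. The reaction holds 25 nM p85(iSH2)-p110β full-length His-tagged construct, 1 μM ATP, 10 μg/mL PI, and eight compound concentrations at 0.45% DMSO final. IC50 values come from a four-parameter logistic fit.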

SMILES strings stand for the structures. Values after ≈ are worked out from the molar mass of the structure shown.

T2 sequence (O00329 with tags, fused parts or gaps limits assumed): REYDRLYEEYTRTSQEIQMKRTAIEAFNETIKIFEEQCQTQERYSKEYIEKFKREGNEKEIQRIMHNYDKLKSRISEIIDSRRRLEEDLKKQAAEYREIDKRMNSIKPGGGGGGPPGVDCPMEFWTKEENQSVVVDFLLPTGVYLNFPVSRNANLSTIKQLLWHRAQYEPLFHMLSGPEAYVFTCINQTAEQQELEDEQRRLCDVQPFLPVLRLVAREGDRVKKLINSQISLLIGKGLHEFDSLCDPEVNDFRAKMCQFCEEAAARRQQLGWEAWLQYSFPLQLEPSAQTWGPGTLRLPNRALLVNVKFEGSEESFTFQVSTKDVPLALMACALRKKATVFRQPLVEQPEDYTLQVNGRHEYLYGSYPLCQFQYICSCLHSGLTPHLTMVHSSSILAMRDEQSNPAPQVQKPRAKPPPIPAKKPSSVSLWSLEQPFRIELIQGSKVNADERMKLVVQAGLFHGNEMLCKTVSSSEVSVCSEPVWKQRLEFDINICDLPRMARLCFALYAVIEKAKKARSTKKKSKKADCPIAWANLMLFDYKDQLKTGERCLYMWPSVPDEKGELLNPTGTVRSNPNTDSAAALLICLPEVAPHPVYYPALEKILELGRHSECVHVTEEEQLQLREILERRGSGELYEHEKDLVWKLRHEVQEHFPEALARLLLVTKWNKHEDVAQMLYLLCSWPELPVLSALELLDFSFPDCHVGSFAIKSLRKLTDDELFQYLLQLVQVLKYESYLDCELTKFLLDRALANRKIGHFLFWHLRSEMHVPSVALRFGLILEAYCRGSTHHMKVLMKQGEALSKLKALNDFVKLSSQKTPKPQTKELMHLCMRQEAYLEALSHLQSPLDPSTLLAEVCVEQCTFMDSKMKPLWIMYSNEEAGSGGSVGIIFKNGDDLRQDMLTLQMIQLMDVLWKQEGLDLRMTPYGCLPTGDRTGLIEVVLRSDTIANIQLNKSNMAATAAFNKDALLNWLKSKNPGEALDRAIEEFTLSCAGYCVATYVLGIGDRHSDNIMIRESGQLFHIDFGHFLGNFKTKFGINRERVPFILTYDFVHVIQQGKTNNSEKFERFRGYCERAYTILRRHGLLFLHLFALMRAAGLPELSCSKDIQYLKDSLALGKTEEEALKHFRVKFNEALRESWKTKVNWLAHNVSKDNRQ
T3 sequence (P42338 with tags, fused parts or gaps limits assumed): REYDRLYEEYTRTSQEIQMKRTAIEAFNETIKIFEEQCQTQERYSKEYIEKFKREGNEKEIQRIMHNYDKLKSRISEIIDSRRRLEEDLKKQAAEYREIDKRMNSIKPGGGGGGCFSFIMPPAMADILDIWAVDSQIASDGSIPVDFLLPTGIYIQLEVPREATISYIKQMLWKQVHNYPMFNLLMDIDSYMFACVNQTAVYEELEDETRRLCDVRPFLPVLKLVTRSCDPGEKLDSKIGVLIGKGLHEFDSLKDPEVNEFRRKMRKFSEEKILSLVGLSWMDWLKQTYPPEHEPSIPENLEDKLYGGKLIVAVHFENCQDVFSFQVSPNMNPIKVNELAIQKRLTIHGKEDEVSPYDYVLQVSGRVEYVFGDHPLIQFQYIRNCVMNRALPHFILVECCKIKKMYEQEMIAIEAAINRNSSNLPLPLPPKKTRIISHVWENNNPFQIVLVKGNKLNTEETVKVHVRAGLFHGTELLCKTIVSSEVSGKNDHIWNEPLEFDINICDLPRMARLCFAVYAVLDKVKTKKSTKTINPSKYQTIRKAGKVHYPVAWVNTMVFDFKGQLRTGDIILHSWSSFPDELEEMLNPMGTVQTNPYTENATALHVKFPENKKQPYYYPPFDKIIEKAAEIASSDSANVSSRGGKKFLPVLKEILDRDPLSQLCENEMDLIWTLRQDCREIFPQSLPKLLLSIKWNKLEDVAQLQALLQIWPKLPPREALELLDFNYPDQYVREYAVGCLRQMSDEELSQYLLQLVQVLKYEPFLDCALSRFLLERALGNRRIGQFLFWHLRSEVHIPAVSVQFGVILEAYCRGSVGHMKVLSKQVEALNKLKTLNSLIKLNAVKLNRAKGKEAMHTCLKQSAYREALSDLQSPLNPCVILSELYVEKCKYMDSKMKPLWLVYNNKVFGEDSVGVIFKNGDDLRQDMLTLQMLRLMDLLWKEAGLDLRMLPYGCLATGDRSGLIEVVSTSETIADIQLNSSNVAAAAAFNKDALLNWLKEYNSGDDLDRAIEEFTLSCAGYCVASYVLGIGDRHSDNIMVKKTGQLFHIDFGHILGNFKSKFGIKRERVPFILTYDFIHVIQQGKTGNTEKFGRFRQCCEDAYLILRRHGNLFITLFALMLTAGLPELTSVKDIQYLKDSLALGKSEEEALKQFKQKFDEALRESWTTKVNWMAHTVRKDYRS
T1 sequence (P42345 1360-2549 limits assumed): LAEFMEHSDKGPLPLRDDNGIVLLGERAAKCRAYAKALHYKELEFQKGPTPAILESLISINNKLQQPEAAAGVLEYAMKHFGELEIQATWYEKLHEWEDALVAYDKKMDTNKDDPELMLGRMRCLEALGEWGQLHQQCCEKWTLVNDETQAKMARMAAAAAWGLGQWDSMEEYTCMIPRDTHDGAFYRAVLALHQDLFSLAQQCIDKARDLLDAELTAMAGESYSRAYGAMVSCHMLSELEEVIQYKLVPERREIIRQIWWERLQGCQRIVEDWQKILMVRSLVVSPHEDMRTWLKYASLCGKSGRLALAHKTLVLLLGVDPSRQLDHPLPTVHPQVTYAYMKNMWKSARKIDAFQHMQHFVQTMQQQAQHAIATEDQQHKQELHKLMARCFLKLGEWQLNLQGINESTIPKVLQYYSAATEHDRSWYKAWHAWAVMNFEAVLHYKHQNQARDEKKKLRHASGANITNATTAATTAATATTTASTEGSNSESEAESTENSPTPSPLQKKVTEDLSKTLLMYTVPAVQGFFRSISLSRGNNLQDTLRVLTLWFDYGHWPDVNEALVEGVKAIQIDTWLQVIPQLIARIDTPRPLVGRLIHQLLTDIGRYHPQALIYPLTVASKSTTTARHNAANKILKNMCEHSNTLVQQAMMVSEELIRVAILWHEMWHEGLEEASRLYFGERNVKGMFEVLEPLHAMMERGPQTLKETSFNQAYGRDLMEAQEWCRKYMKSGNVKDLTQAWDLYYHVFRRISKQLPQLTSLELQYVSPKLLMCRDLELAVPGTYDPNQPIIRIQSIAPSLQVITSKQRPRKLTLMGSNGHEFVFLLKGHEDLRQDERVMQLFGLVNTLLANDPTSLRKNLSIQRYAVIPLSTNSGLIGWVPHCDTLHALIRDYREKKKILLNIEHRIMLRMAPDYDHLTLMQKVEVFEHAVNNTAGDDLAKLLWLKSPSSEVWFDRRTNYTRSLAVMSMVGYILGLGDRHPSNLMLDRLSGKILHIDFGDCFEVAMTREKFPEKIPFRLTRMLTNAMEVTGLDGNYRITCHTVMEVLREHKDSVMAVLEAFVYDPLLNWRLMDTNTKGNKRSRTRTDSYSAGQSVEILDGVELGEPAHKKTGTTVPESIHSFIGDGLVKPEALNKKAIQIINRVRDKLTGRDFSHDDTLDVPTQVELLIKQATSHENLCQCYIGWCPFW

With `CNc1cc(-c2ccc3ncc4c(c3c2)n(-c2cn(C(C)C)nc2C)c(=O)n4C)cnc1CO` [Example 158.2, 8-(6-Hydroxymethyl-5-methylamino-pyridin-3-yl)-1-(1-isopropyl-3-methyl-1H-pyrazol-4-yl)-3-methyl-1,3-dihydro-imidazo[4,5-c]quinolin-2-one], the solubility in “Solubility at pH 6.8” is over 458 µg/mL. The IC50 came to 0.004 µM at mTOR, 0.008 µM on PI3K delta and 0.184 µM on PI3K beta.

As for `Cc1nn(C(C)C)cc1-n1c(=O)n(C)c2cnc3ccc(-c4cnc(N)c(F)c4)cc3c21` [Example 142.3, 8-(6-Amino-5-fluoro-pyridin-3-yl)-1-(1-isopropyl-3-methyl-1H-pyrazol-4-yl)-3-methyl-1,3-dihydro-imidazo[4,5-c]quinolin-2-one], the solubility in “Solubility at pH 6.8” was 5 µg/mL (≈ 11.6 µM). Further, the IC50 on mTOR worked out at 0.017 µM; at PI3K delta it was 0.018 µM; on PI3K beta, 0.385 µM.

In the case of `COC(=O)c1ccc(-c2ccc3ncc4c(c3c2)n(-c2cn(C)nc2C)c(=O)n4C)cn1` [Example 100, 5-[1-(1,3-Dimethyl-1H-pyrazol-4-yl)-3-methyl-2-oxo-2,3-dihydro-1H-imidazo[4,5-c]quinolin-8-yl]-pyridine-2-carboxylic acid methyl ester], in the series “Solubility at pH 6.8”, the solubility came to 12 µg/mL (≈ 28 µM). In addition, the IC50 on mTOR amounted to 0.006 µM; on PI3K delta, 0.094 µM; on PI3K beta it was 0.14 µM.

Take `Cc1nn(C)cc1-n1c(=O)n(C)c2cnc3ccc(-c4cnc5ccccc5c4)cc3c21` [Example 38, 1-(1,3-Dimethyl-1H-pyrazol-4-yl)-3-methyl-8-quinolin-3-yl-1,3-dihydro-imidazo[4,5-c]quinolin-2-one]: the solubility in “Solubility at pH 6.8” is 13 µg/mL (≈ 30.9 µM). In addition, the IC50 was 0.006 µM on mTOR, 0.007 µM on PI3K delta and 0.04 µM on PI3K beta.

In the case of `CCOc1cncc(-c2ccc3ncc4c(c3c2)n(-c2cn(CC(=O)N(C)C)nc2C)c(=O)n4C)c1` [Example 56.2, 2-{4-[8-(5-Ethoxy-pyridin-3-yl)-3-methyl-2-oxo-2,3-dihydro-imidazo[4,5-c]quinolin-1-yl]-3-methyl-pyrazol-1-yl}-N,N-dimethyl-acetamide], the solubility in the series “Solubility at pH 6.8” was over 486 µg/mL. Also, the values for the IC50 on mTOR, at PI3K delta and at PI3K beta were 0.052 µM, 0.121 µM and 0.317 µM, respectively.

Turning to `Cc1cnn(C)c1-n1c(=O)n(C)c2cnc3ccc(-c4cncc(OC(C)C)c4)cc3c21` [Example 58.3, 1-(2,4-Dimethyl-2H-pyrazol-3-yl)-8-(5-isopropoxy-pyridin-3-yl)-3-methyl-1,3-dihydro-imidazo[4,5-c]quinolin-2-one], the solubility in the series “Solubility at pH 6.8” turned out to be 6 µg/mL (≈ 14 µM). In addition, the IC50 at mTOR turned out to be 0.566 µM; on PI3K delta it was 0.118 µM; on PI3K beta, 0.203 µM.

For the compound `CNc1ncc(-c2ccc3ncc4c(c3c2)n(-c2cn(C(C)C)nc2C)c(=O)n4C)cc1F` [Example 141.3, 8-(5-Fluoro-6-methylamino-pyridin-3-yl)-1-(1-isopropyl-3-methyl-1H-pyrazol-4-yl)-3-methyl-1,3-dihydro-imidazo[4,5-c]quinolin-2-one], the solubility in the series “Solubility at pH 6.8” was 5 µg/mL (≈ 11.2 µM). Besides, the half-inhibitory concentration (IC50) is 0.027 µM at mTOR, 0.009 µM on PI3K delta and 0.407 µM at PI3K beta.

As to `Cn1cc(-n2c(=O)n(C)c3cnc4ccc(-c5cncc(C(C)(C)C#N)c5)cc4c32)c(Cl)n1` [Example 220.3, 2-{5-[1-(3-Chloro-1-methyl-1H-pyrazol-4-yl)-3-methyl-2-oxo-2,3-dihydro-1H-imidazo[4,5-c]quinolin-8-yl]-pyridin-3-yl}-2-methyl-propionitrile], in “Solubility at pH 6.8”, the solubility turned out to be 16 µg/mL (≈ 34.9 µM). The values for the IC50 at mTOR, at PI3K delta and at PI3K beta were 0.005 µM, 0.003 µM and 0.007 µM, respectively.

`Cc1nn(C)cc1-n1c(=O)n(C)c2cnc3ccc(-c4cnc5c(ccn5C)c4)cc3c21` [Example 116, 1-(1,3-Dimethyl-1H-pyrazol-4-yl)-3-methyl-8-(1-methyl-1H-pyrrolo[2,3-b]pyridin-5-yl)-1,3-dihydro-imidazo[4,5-c]quinolin-2-one]: the solubility in the series “Solubility at pH 6.8” came to 3 µg/mL (≈ 7.08 µM). The half-inhibitory concentration (IC50) amounted to 0.015 µM at mTOR, 0.016 µM on PI3K delta and 0.206 µM on PI3K beta.

Turning to `CCOc1ccc(-c2ccc3ncc4c(c3c2)n(-c2cn(CC)nc2C)c(=O)n4C)cc1OC` [Example 29.1, 8-(4-Ethoxy-3-methoxy-phenyl)-1-(1-ethyl-3-methyl-1H-pyrazol-4-yl)-3-methyl-1,3-dihydro-imidazo[4,5-c]quinolin-2-one], the solubility in the series “Solubility at pH 6.8” is 3 µg/mL (≈ 6.56 µM). For the same compound, the figures for the concentration for half-maximal inhibition (IC50) at mTOR, on PI3K delta and at PI3K beta were 0.026 µM, 0.027 µM and 0.057 µM, respectively.

With `Cc1nn(C)cc1-n1c(=O)n(C)c2cnc3ccc(-c4cnc5ccn(C)c5c4)cc3c21` [Example 129, 1-(1,3-Dimethyl-1H-pyrazol-4-yl)-3-methyl-8-(1-methyl-1H-pyrrolo[3,2-b]pyridin-6-yl)-1,3-dihydro-imidazo[4,5-c]quinolin-2-one], the solubility in the series “Solubility at pH 6.8” was 21 µg/mL (≈ 49.6 µM). In addition, the IC50 was 0.005 µM at mTOR, 0.009 µM on PI3K delta and 0.034 µM at PI3K beta.

As for `Cc1nn(C)cc1-n1c(=O)n(C)c2cnc3ccc(-c4ccc(N5CCNCC5)nc4)cc3c21` [Example 126, 1-(1,3-Dimethyl-1H-pyrazol-4-yl)-3-methyl-8-(6-piperazin-1-yl-pyridin-3-yl)-1,3-dihydro-imidazo[4,5-c]quinolin-2-one], the solubility in “Solubility at pH 6.8” was over 455 µg/mL. The IC50 came to 0.097 µM at mTOR, 0.102 µM at PI3K delta and 0.802 µM on PI3K beta.

`CCn1cc(-n2c(=O)n(C)c3cnc4ccc(-c5cnc(COC)c(OC(C)C)c5)cc4c32)c(C)n1` [Example 191.2, 1-(1-Ethyl-3-methyl-1H-pyrazol-4-yl)-8-(5-isopropoxy-6-methoxymethyl-pyridin-3-yl)-3-methyl-1,3-dihydro-imidazo[4,5-c]quinolin-2-one]: the solubility in “Solubility at pH 6.8” was 243 µg/mL (≈ 499 µM). The 50% inhibitory concentration (IC50) on mTOR was determined as 0.034 µM; on PI3K delta it was 0.011 µM; on PI3K beta it was 0.178 µM.

Regarding `CCn1cc(-n2c(=O)n(C)c3cnc4ccc(-c5ccc(OC)nc5)cc4c32)c(C)n1` [Example 2.7, 1-(1-Ethyl-3-methyl-1H-pyrazol-4-yl)-8-(6-methoxy-pyridin-3-yl)-3-methyl-1,3-dihydro-imidazo[4,5-c]quinolin-2-one], the solubility in the series “Solubility at pH 6.8” came to 3 µg/mL (≈ 7.24 µM). Moreover, the IC50 at mTOR worked out at 0.013 µM; on PI3K delta, 0.019 µM; at PI3K beta, 0.091 µM.

`CCOc1cc(-c2ccc3ncc4c(c3c2)n(-c2cn(C(C)C)nc2C)c(=O)n4C)cnc1COC` [Example 197.2, 8-(5-Ethoxy-6-methoxymethyl-pyridin-3-yl)-1-(1-isopropyl-3-methyl-1H-pyrazol-4-yl)-3-methyl-1,3-dihydro-imidazo[4,5-c]quinolin-2-one]: the solubility in “Solubility at pH 6.8” was found to be 225 µg/mL (≈ 462 µM). The 50% inhibitory concentration (IC50) came out at 0.107 µM on mTOR, 0.024 µM on PI3K delta and 0.103 µM at PI3K beta.

Regarding `CCOc1ccc(-c2ccc3ncc4c(c3c2)n(-c2c(C)nn(C)c2C)c(=O)n4C)cn1` [Example 3.3, 8-(6-Ethoxy-pyridin-3-yl)-3-methyl-1-(1,3,5-trimethyl-1H-pyrazol-4-yl)-1,3-dihydro-imidazo[4,5-c]quinolin-2-one], the solubility in the series “Solubility at pH 6.8” was determined as 104 µg/mL (≈ 243 µM). In addition, the results for the half-inhibitory concentration (IC50) on mTOR, on PI3K delta and on PI3K beta were 0.651 µM, 0.148 µM and 0.401 µM, respectively.
